PubChem BioAssay (NCI)
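Following 48 hours of exposure in 96-well plates, responses at five concentrations were used to interpolate endpoints linearly. TGI is the concentration that stops growth completely.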

Assays:
Assay in all cases: NCI anticancer screen, dose series, 48 h
SW-620 colon = system: SW-620 colon
SK-MEL-2 melanoma = system: SK-MEL-2 melanoma
PC-3 prostate = system: PC-3 prostate
U251 CNS = system: U251 CNS
KM12 colon = system: KM12 colon
HCC-2998 colon = system: HCC-2998 colon
SK-OV-3 ovarian = system: SK-OV-3 ovarian
K-562 leukemia = system: K-562 leukemia
MDA-MB-435 = system: MDA-MB-435
OVCAR-5 ovarian = system: OVCAR-5 ovarian

Compound | TGI (SW-620 colon) | TGI (SK-MEL-2 melanoma) | TGI (PC-3 prostate) | TGI (U251 CNS) | TGI (KM12 colon) | TGI (HCC-2998 colon) | TGI (SK-OV-3 ovarian) | TGI (K-562 leukemia) | TGI (MDA-MB-435) | TGI (OVCAR-5 ovarian)
Cc1cc2c(c(=O)n1C)SCC2 | > 100 µM | > 100 µM | > 100 µM | > 100 µM | > 100 µM | > 100 µM | > 100 µM | > 100 µM | > 100 µM | > 100 µM
CC1(C2CCC3(C)OC3C2)CO1 (configuration not stated) | > 100 µM | > 100 µM |  | > 100 µM | > 100 µM | > 100 µM | > 100 µM | > 100 µM |  | > 100 µM
CCN(CC)c1nc(N(C)C)c2ccccc2n1 | > 100 µM | > 100 µM | > 100 µM | > 100 µM | > 100 µM | 38.3 µM | > 100 µM | 44.5 µM | > 100 µM | > 100 µM
Cc1ccc(S(=O)(=O)n2cc(C#N)c(C#N)c2)cc1 | 80 µM | 52 µM | 85 µM | > 100 µM | > 100 µM | 48.2 µM | 91.9 µM | > 100 µM | 45.6 µM | 81.2 µM
CN1C(=O)C(O)CC1c1cccc(C(F)(F)F)c1 (configuration not stated) | > 100 µM | > 100 µM | > 100 µM | > 100 µM | > 100 µM | > 100 µM | > 100 µM | > 100 µM | > 100 µM | > 100 µM
CC(C)(C)C1CC[C@H](O)[C@H]([C@H](O)CC2CC(=O)N(c3ccccc3)C(=O)C2)C1 (some centres not stated) | > 100 µM |  | > 100 µM | > 100 µM | > 100 µM | > 100 µM |  | > 100 µM | > 100 µM | > 100 µM
COC(=O)c1c(-c2ccc(Cl)cc2)cc2c3ccccc3n(C)c2c1C(=O)OC | > 100 µM | > 100 µM | > 100 µM | > 100 µM | > 100 µM |  | > 100 µM | > 100 µM | > 100 µM | > 100 µM
CCCNc1ncnc2[nH]ncc12 | > 100 µM | > 100 µM | > 100 µM | > 100 µM | > 100 µM | > 100 µM | > 100 µM | > 100 µM | > 100 µM | > 100 µM
C#CCC1(C(=O)OCC)C(=O)c2ccccc2N(C)C1=O (configuration not stated) | > 100 µM | > 100 µM |  | > 100 µM |  |  | > 100 µM | > 100 µM |  | 
CN(C)C(=S)Oc1ccc2ccc(=O)oc2c1 | > 100 µM | > 100 µM | > 100 µM | > 100 µM | > 100 µM | > 100 µM | > 100 µM |  | > 100 µM | > 100 µM
Cc1ccccc1OC(C)C(=O)NN1C(=O)CC(=O)N(c2ccccc2)C1=S (configuration not stated) | > 100 µM | > 100 µM | > 100 µM | > 100 µM | > 100 µM | > 100 µM | > 100 µM | > 100 µM | > 100 µM | > 100 µM
CCN(CC)c1ccc2cc(-c3nc4ccccc4c(=O)[nH]3)c(=N)oc2c1 | > 100 µM | > 100 µM | > 100 µM | > 100 µM | > 100 µM | > 100 µM | > 100 µM | > 100 µM | > 100 µM | > 100 µM
NCCC1CN(C(=O)OCc2ccccc2)c2ccccc21 (configuration not stated) | 25.4 µM | 36.3 µM | > 36.2 µM | 32.4 µM | 48.2 µM | 33.9 µM | > 59.6 µM | 26.9 µM | 30 µM | 45.4 µM
C(/Cc1ccc2c(c1)OCO2)=N\NC1=NCCCN1 | > 100 µM | > 100 µM | > 100 µM | > 100 µM | > 100 µM | > 100 µM | > 100 µM | > 100 µM | > 100 µM | > 100 µM
COC(=O)[C@@H]1CN(C(=O)c2ccccc2)C(=O)N1C(=O)OCc1ccccc1 | > 100 µM | > 100 µM |  | > 100 µM | > 100 µM | > 100 µM | > 100 µM | > 100 µM | > 100 µM | > 100 µM
O=c1cc(NCc2ccncc2)[nH]c(=O)[nH]1 | > 100 µM | > 100 µM | > 100 µM | > 100 µM | > 100 µM | > 100 µM | > 100 µM | > 100 µM | > 100 µM | > 100 µM
CCOC(=O)c1cn(C)c(=S)n2c1nc1ccccc12 | > 100 µM | > 100 µM | > 100 µM | > 100 µM | > 100 µM | > 100 µM |  | > 100 µM | > 100 µM | > 100 µM
Cc1nc2ccc(Cl)cc2c2c1CCN2c1ccccc1 | 63.9 µM |  | 29.5 µM | 35.2 µM | 39.1 µM | 24.8 µM |  | 21.8 µM | 21.3 µM | 
NCCOCC(N)C(=O)O (configuration not stated) | > 100 µM | > 100 µM | > 100 µM | > 100 µM | > 100 µM | > 100 µM | > 100 µM | > 100 µM | > 100 µM | > 100 µM
CSc1nc(NC(C)C)c2c(n1)Sc1nc3ccccc3n1C2O (configuration not stated) | 65.3 µM | 52 µM | > 100 µM | > 100 µM | > 100 µM | > 100 µM | > 100 µM | > 100 µM | 5.02 µM | 
CS(=O)(=O)NC12CCC(c3ccccc31)c1ccccc12 | > 100 µM | > 100 µM | > 100 µM | > 100 µM | > 100 µM |  | > 100 µM | > 100 µM | > 100 µM | > 100 µM
CCOC(=O)C1CCCCN1CCc1c[nH]c2ccccc12 (configuration not stated) | > 100 µM | > 100 µM | > 100 µM | > 100 µM | > 100 µM | > 100 µM | > 100 µM | > 100 µM | > 100 µM | > 100 µM
CCOC(=O)C1(C(F)(F)F)N=C(CC)OC(N2CCOCC2)=N1 (configuration not stated) | > 100 µM | > 100 µM | > 100 µM | > 100 µM | > 100 µM | > 100 µM | > 100 µM | > 100 µM | > 100 µM | > 100 µM
